Assay results reported in patent publication US20260184663A1, “INDENE COMPOUNDS, PHARMACEUTICAL COMPOSITIONS THEREOF, AND THEIR THERAPEUTIC APPLICATIONS” (NucMito Pharmaceuticals co. Ltd., priority 2022, published 2026).

Assays:
Type in all cases: cell-based
[1] = tested on: MDA-MB-231 (breast cancer); assay: Antiproliferative activity (CCK-8 cell viability), MDA-MB-231; conditions: Homo sapiens, 72 h, read-out: Antiproliferative activity in cancerous cells, MDA-MB-231 (inhibition of cell growth); for inhibition at 3.3 µM: Compound concentration: 3.3 μM; for inhibition at 10 µM: Compound concentration: 10 μM; for inhibition at 30 µM: Compound concentration: 30 μM
Outline: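 MDA-MB-231 breast cancer cells, grown in DMEM with 10% FBS, were plated in 96-well plates at 2,000-5,000 cells/well. Once attached, they were exposed to compound and incubated at 37° C. for 72 h. Viability was then measured with CCK-8 (10 μL per well, 4 h at 37° C.) by absorbance at 450 nm, relative to DMSO vehicle wells.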

HepG2 (liver cancer) = assay: Antiproliferative activity (CCK-8 cell viability), HepG2; conditions: Homo sapiens, 72 h, read-out: Antiproliferative activity in cancerous cells, HepG2 (inhibition of cell growth); for inhibition at 3.3 µM: Compound concentration: 3.3 μM; for inhibition at 10 µM: Compound concentration: 10 μM; for inhibition at 30 µM: Compound concentration: 30 μM
Outline: (§1)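 Cells grown in DMEM (HepG2, SW480), MEM (HeLa) or F-12K (A549), each with 10% FBS, then exposed to compound at 3.3, 10 or 30 μM for 72 h at 37 °C. CCK-8 absorbance at 450 nm; viability expressed as percent of DMSO-treated cells, graded as growth inhibition bands.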

SW480 (colon cancer) = assay: Antiproliferative activity (CCK-8 cell viability), SW480; conditions: Homo sapiens, 72 h, read-out: Antiproliferative activity in cancerous cells, SW480 (inhibition of cell growth); for inhibition at 3.3 µM: Compound concentration: 3.3 μM; for inhibition at 10 µM: Compound concentration: 10 μM; for inhibition at 30 µM: Compound concentration: 30 μM
Outline: as §1

[2] = tested on: B16F10 (malignant melanoma); assay: Antiproliferative activity (CCK-8 cell viability), B16F10; conditions: Mus musculus, 72 h, read-out: Antiproliferative activity in cancerous cells, B16F10 (inhibition of cell growth); for inhibition at 3.3 µM: B16-F10, Compound concentration: 3.3 μM; for inhibition at 10 µM: B16-F10, Compound concentration: 10 μM; for inhibition at 30 µM: B16-F10, Compound concentration: 30 μM
Outline: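 B16F10 melanoma cells grown in DMEM with 10% FBS were plated in 96-well plates at 2,000-5,000 cells/well. After attachment they were exposed to compound in medium for 72 h at 37° C. CCK-8 solution (10 μL) was then added, and after 4 h at 37° C absorbance was read at 450 nm.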

[3] = tested on: A431 (epidermoid carcinoma); assay: Antiproliferative activity (CCK-8 cell viability), A431; conditions: Homo sapiens, 72 h, read-out: Antiproliferative activity in cancerous cells, A431 (inhibition of cell growth); for inhibition at 3.3 µM: A-431, Compound concentration: 3.3 μM; for inhibition at 10 µM: A-431, Compound concentration: 10 μM; for inhibition at 30 µM: A-431, Compound concentration: 30 μM
Outline: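 A431 epidermoid carcinoma cells grown in DMEM with 10% FBS were plated at 2,000-5,000 cells/well in 96-well plates. After attachment they were exposed to compound at 3.3 μM, 10 μM, or 30 μM for 72 h at 37° C. Viability was then assessed by CCK-8 against DMSO vehicle-treated wells.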

[4] = tested on: A549 (lung adenocarcinoma); assay: Antiproliferative activity (CCK-8 cell viability), A549; conditions: Homo sapiens, 72 h, read-out: Antiproliferative activity in cancerous cells, A549 (inhibition of cell growth); for inhibition at 3.3 µM: Compound concentration: 3.3 μM; for inhibition at 10 µM: Compound concentration: 10 μM; for inhibition at 30 µM: Compound concentration: 30 μM
Outline: as §1

HeLa (cervical cancer) = assay: Antiproliferative activity (CCK-8 cell viability), HeLa; conditions: Homo sapiens, 72 h, read-out: Antiproliferative activity in cancerous cells, HELA (inhibition of cell growth); for inhibition at 3.3 µM: Compound concentration: 3.3 μM; for inhibition at 10 µM: Compound concentration: 10 μM; for inhibition at 30 µM: Compound concentration: 30 μM
Outline: as §1

Structure (SMILES)	inhibition at 3.3 µM [1] [%]	inhibition at 10 µM [1] [%]	inhibition at 30 µM [1] [%]	inhibition at 3.3 µM (HepG2 (liver cancer)) [%]	inhibition at 10 µM (HepG2 (liver cancer)) [%]	inhibition at 30 µM (HepG2 (liver cancer)) [%]	inhibition at 3.3 µM (SW480 (colon cancer)) [%]	inhibition at 10 µM (SW480 (colon cancer)) [%]	inhibition at 30 µM (SW480 (colon cancer)) [%]	inhibition at 3.3 µM [2] [%]	inhibition at 10 µM [2] [%]	inhibition at 30 µM [2] [%]	inhibition at 3.3 µM [3] [%]	inhibition at 10 µM [3] [%]	inhibition at 30 µM [3] [%]	inhibition at 3.3 µM [4] [%]	inhibition at 10 µM [4] [%]	inhibition at 30 µM [4] [%]	inhibition at 3.3 µM (HeLa (cervical cancer)) [%]	inhibition at 10 µM (HeLa (cervical cancer)) [%]	further results
CC1=C(CC(=O)O)c2cc(F)ccc2/C1=C\c1cccc(C(=O)c2ccccc2)c1 [C304, (Z)-2-(1-(3-Benzoylbenzylidene)-5-fluoro-2-methyl-1H-inden-3-yl)acetic acid]	< 30	30 to 50	≥ 50	30 to 50	≥ 50	≥ 50	< 30	≥ 50	≥ 50	< 30	≥ 50	≥ 50	< 30	30 to 50	≥ 50	< 30	≥ 50	≥ 50	30 to 50	≥ 50	inhibition at 30 µM (HeLa (cervical cancer)): ≥ 50%
CC1=C(CC(=O)O)c2cc(F)ccc2/C1=C\c1ccc(C(=O)c2ccc(F)cc2)cc1 [C305, (Z)-2-(5-Fluoro-1-(4-(4-fluorobenzoyl)benzylidene)-2-methyl-1H-inden-3-yl)acetic acid]	≥ 50	≥ 50	≥ 50	30 to 50	≥ 50	≥ 50	30 to 50	≥ 50	≥ 50	< 30	≥ 50	≥ 50	30 to 50	≥ 50	≥ 50	< 30	≥ 50	≥ 50	30 to 50	≥ 50	inhibition at 30 µM (HeLa (cervical cancer)): ≥ 50%
COc1ccc(C(=O)c2ccc(/C=C3/C(C)=C(CC(=O)O)c4cc(F)ccc43)cc2)cc1 [C306, (Z)-2-(5-Fluoro-1-(4-(4-methoxybenzoyl)benzylidene)-2-methyl-1H-inden-3-yl)acetic acid]	≥ 50	≥ 50	≥ 50	30 to 50	≥ 50	≥ 50	30 to 50	30 to 50	≥ 50	< 30	≥ 50	≥ 50	≥ 50	≥ 50	≥ 50	< 30	30 to 50	30 to 50	30 to 50	≥ 50	inhibition at 30 µM (HeLa (cervical cancer)): ≥ 50%
CC1=C(CC(=O)O)c2cc(F)ccc2/C1=C\c1ccc(C(=O)c2ccccc2)cc1 [C307, (Z)-2-(1-(4-Benzoylbenzylidene)-5-fluoro-2-methyl-1H-inden-3-yl)acetic acid]	30 to 50	≥ 50	–	30 to 50	≥ 50	–	< 30	≥ 50	–	< 30	≥ 50	–	30 to 50	≥ 50	–	< 30	≥ 50	–	< 30	≥ 50	–
